How the values were obtained:
ICR mice = experiment: Carbon tetrachloride (CCl4)-induced hepatic dysfunction model in mice, blood plasma AST and ALT levels; assay type: in vivo; conditions: male ICR mice; 400 mg/kg/day once-daily oral for three days, then CCl4 0.04 mL/kg i.p.; blood 16 hours after CCl4; compared with group 2 (vehicle+CCl4)
Description: GSSSG dihydrate prepared by the method described in Patent Literature 1 was crushed in a mortar. To 10 mL of distilled water, the crushed GSSSG dihydrate (200 mg in terms of anhydride) was added and suspended. Then, twice as much sodium hydrogen carbonate as the GSSSG anhydride was added thereto on a molar basis, and the resultant mixture was mixed for 10 minutes. The obtained GSSSG solution was further diluted with distilled water to obtain administration samples 3 and 4. In addition, reduced glutathione (GSH) or oxidized glutathione (GSSG), manufactured by KYOWA HAKKO BIO Co., Ltd., was dissolved in distilled water to obtain each of administration samples 1 and 2.
Four-week-old male ICR mice (Charles River Laboratories Japan, Inc.) were acclimated for 1 week and then subjected to a test at 5 weeks of age. During the test period, the mice were allowed to freely drink water regarding water, allowed to freely ingest a solid feed CE-2 (CLEA Japan, Inc.), and kept at a temperature of 20° C. to 24° C., a humidity of 50% to 60%, and for 12 hours of light-dark cycle. Thereafter, the mice were divided into groups 1 to 6 so that each group included 3 or 4 mice. • Group 1: Normal (vehicle-no symptoms induced) • Group 2: Vehicle+CCl4 • Group 3: GSH 400 mg/kg/day (administration sample 1)+CCl4 • Group 4: GSSG 400 mg/kg/day (administration sample 2)+CCl4 • Group 5: GSSSG 100 mg/kg/day (administration sample 3)+CCl4
Group 6: GSSSG 400 mg/kg/day (administration sample 4)+CCl4
After the group dividing, the vehicle, the administration sample 1, the administration sample 2, the administration sample 3, or the administration sample 4 was subjected to an once-daily forced oral administration at the above-described dose for a total of three consecutive days. After 30 minutes from the final oral administration, CCl4 (0.04 mL/kg) suspended in olive oil was intraperitoneally administered to induce hepatic dysfunction.

HepG2 cells = experiment: Protective effect against hepatocellular damage by hydrogen peroxide in HepG2 cells, cell survival rate by MTT assay; assay type: cell-based, human; conditions: for Cell survival rate (%): then 0.1 mM hydrogen peroxide for 2 hours, control group = 100; for cell survival rate as compared with the solvent addition group: sample added before 0.1 mM hydrogen peroxide
Description: A human hepatoma-derived cell line (HepG2: HB-8065™, Lot number: 70029112) was obtained from American Type Culture Collection, and Dulbecco's Modified Eagle Medium containing 10% FBS (Thermo Fisher Scientific, Inc.) was used as a basal medium. Cells were cultured in an incubator of 37° C. and 5% CO2, and the cells that had been passaged to 16 to 25 generations were subjected to experimentation. The used GSSG and GSSSG were those manufactured by KYOWA HAKKO BIO Co., Ltd.
0.15 mL of a cell suspension obtained by adjusting the initial cell concentration to 2×10^4 cells/mL was seeded in a 96-well plate (Thermo Fisher Scientific, Inc.).
After the culturing for 4 hours from the seeding, GSSSG (for the addition group of the final concentration of 0.05 mM and the addition group of the final concentration of 0.1 mM) was added to the culture medium. In addition, apart from this, a group in which only the solvent of GSSSG (PBS in which sodium hydrogen carbonate was dissolved so that the concentration thereof was 15.8 mM) was added was defined as a solvent addition group. After the culturing for 20 hours from the sample addition, the culture medium was replaced with a culture medium (not containing GSSSG) obtained by adding hydrogen peroxide solution (FUJIFILM Wako Pure Chemical Corporation) to the above-described sample addition group and the solvent addition group so that the final concentration thereof was 0.1 mM, and then hepatocellular damage was induced. The control group was the group in which the same amount of PBS was added to the solvent addition group instead of hydrogen peroxide solution. After the culturing for 2 hours from the addition of hydrogen peroxide solution or PBS, the cell survival rate was measured according to the MTT assay, and the degree of hepatocellular damage was evaluated. For GSSG as well, an experiment was carried out in the same manner as in the GSSSG, except that PBS was used as a solvent.

For `N[C@@H](CCC(=O)N[C@@H](CS)C(=O)NCC(=O)O)C(=O)O` [GSH, reduced glutathione], the “blood plasma ALT level” value (ICR mice) was “significant suppression” and the “blood plasma AST level” value (ICR mice) was “significant suppression”.

In the case of `N[C@@H](CCC(=O)N[C@@H](CSSSC[C@H](NC(=O)CC[C@H](N)C(=O)O)C(=O)NCC(=O)O)C(=O)NCC(=O)O)C(=O)O` [GSSSG, glutathione trisulfide], the “Cell survival rate (%)” value (HepG2 cells; sample 0.05 mM for 20 hours) is reported as 36.9%, the “Cell survival rate (%)” value (HepG2 cells; sample 0.1 mM for 20 hours) is reported as 49.7% and the “cell survival rate as compared with the solvent addition group” value (HepG2 cells) is reported as “improved survival rate”. The “blood plasma ALT level” value (ICR mice) was “tendency of the suppression” and the “blood plasma AST level” value (ICR mice) was “tendency of the suppression”.

In the case of oxidized glutathione [GSSG], the “Cell survival rate (%)” value (HepG2 cells; sample 0.05 mM for 20 hours) is reported as 39.4%, the “Cell survival rate (%)” value (HepG2 cells; sample 0.1 mM for 20 hours) is reported as 38.4% and the “cell survival rate as compared with the solvent addition group” value (HepG2 cells) is reported as “significantly decreased”. For the same compound, the “blood plasma ALT level” value (ICR mice) was “significant suppression” and the “blood plasma AST level” value (ICR mice) was “significant suppression”.

Source: patent publication US20250152535A1, “COMPOSITION FOR PREVENTING OR IMPROVING HEPATIC DYSFUNCTION” (KYOWA HAKKO BIO CO., LTD., priority 2022, published 2025)
